“And” between values parts separate entries of the source, which are not always exact repeats. Equal values may be shown once.
Details: Liquid, Vibrating wire viscometry

CC(F)(F)F [1,1,1-trifluoroethane]
Details	viscosity
254.35 K, 1340 kPa	0.2054 mPa·s
254.35 K, 1350 kPa	0.2063 mPa·s and 0.2059 mPa·s and 0.2062 mPa·s
254.35 K, 1360 kPa	0.2057 mPa·s and 0.2065 mPa·s
254.35 K, 1410 kPa	0.206 mPa·s
254.35 K, 1450 kPa	0.2063 mPa·s
254.35 K, 1960 kPa	0.208 mPa·s and 0.2082 mPa·s
254.35 K, 1970 kPa	0.2078 mPa·s
254.35 K, 2010 kPa	0.2081 mPa·s and 0.208 mPa·s
254.35 K, 2040 kPa	0.2083 mPa·s
254.35 K, 2070 kPa	0.2088 mPa·s
254.35 K, 3110 kPa	0.2114 mPa·s
254.35 K, 3160 kPa	0.2116 mPa·s
254.35 K, 3170 kPa	0.2115 mPa·s
254.35 K, 3210 kPa	0.2122 mPa·s
254.35 K, 3280 kPa	0.212 mPa·s
254.35 K, 3320 kPa	0.2119 mPa·s
254.35 K, 4170 kPa	0.2145 mPa·s
254.35 K, 4190 kPa	0.2147 mPa·s
254.35 K, 4210 kPa	0.2147 mPa·s
254.35 K, 4940 kPa	0.2173 mPa·s
254.35 K, 4970 kPa	0.2167 mPa·s
254.35 K, 5000 kPa	0.2176 mPa·s
254.35 K, 5020 kPa	0.2172 mPa·s
254.35 K, 5050 kPa	0.2171 mPa·s
254.35 K, 5100 kPa	0.2176 mPa·s
263.02 K, 1300 kPa	0.1828 mPa·s
263.02 K, 1320 kPa	0.1828 mPa·s and 0.1829 mPa·s
263.02 K, 1330 kPa	0.1827 mPa·s and 0.1826 mPa·s
263.02 K, 1970 kPa	0.1855 mPa·s
263.02 K, 1980 kPa	0.1857 mPa·s
263.02 K, 1990 kPa	0.1855 mPa·s
263.02 K, 2010 kPa	0.1851 mPa·s
263.02 K, 2020 kPa	0.1857 mPa·s and 0.1859 mPa·s
263.02 K, 3420 kPa	0.1899 mPa·s
263.02 K, 3430 kPa	0.1898 mPa·s
263.02 K, 3450 kPa	0.1898 mPa·s
263.02 K, 3520 kPa	0.1903 mPa·s
263.02 K, 3560 kPa	0.1901 mPa·s
263.02 K, 3590 kPa	0.1898 mPa·s
263.02 K, 3640 kPa	0.1906 mPa·s
263.02 K, 3670 kPa	0.1905 mPa·s and 0.1908 mPa·s
263.02 K, 4800 kPa	0.1943 mPa·s
263.02 K, 4840 kPa	0.194 mPa·s
263.02 K, 4870 kPa	0.194 mPa·s
263.02 K, 4910 kPa	0.1942 mPa·s
263.02 K, 4950 kPa	0.1939 mPa·s
263.02 K, 6990 kPa	0.2018 mPa·s
263.02 K, 7090 kPa	0.201 mPa·s
263.02 K, 7160 kPa	0.2015 mPa·s
263.02 K, 7200 kPa	0.2011 mPa·s
263.02 K, 7230 kPa	0.2016 mPa·s
263.02 K, 7310 kPa	0.2013 mPa·s and 0.2019 mPa·s
263.02 K, 7380 kPa	0.2024 mPa·s
263.02 K, 7390 kPa	0.2015 mPa·s
263.02 K, 7420 kPa	0.2011 mPa·s
263.02 K, 7460 kPa	0.2024 mPa·s and 0.2022 mPa·s
263.02 K, 7520 kPa	0.2017 mPa·s
273.21 K, 1420 kPa	0.1617 mPa·s
273.21 K, 1430 kPa	0.1619 mPa·s
273.21 K, 1440 kPa	0.1619 mPa·s
273.21 K, 1450 kPa	0.1619 mPa·s
273.21 K, 1810 kPa	0.1629 mPa·s
273.21 K, 1820 kPa	0.1627 mPa·s
273.21 K, 1860 kPa	0.1629 mPa·s
273.21 K, 1890 kPa	0.1626 mPa·s
273.21 K, 3450 kPa	0.1681 mPa·s and 0.1679 mPa·s and 0.1682 mPa·s
273.21 K, 3460 kPa	0.1677 mPa·s
273.21 K, 3490 kPa	0.1682 mPa·s and 0.1678 mPa·s
273.21 K, 3500 kPa	0.168 mPa·s
273.21 K, 4850 kPa	0.1724 mPa·s
273.21 K, 4860 kPa	0.1722 mPa·s
273.21 K, 4880 kPa	0.1724 mPa·s and 0.1719 mPa·s
273.21 K, 4910 kPa	0.1722 mPa·s

— the NIST ThermoML archive (doi:10.1021/je0601356)
